EP0692191A1, “UTILIZATION OF PHENYL COMPOUNDS FOR THE CONTROL OF PHYTOPARASITE NEMATODES” (UNIVERSIDAD DE LA LAGUNA, priority 1993, dated 1995)
pIC50: −log10 of the molar value. Several values for one entry are separate records, joined by “and”; a condition that tells them apart may be missing. Identical values can stand only once. Like-named read-outs stand apart in the source and are kept apart here. Marks after values point to notes of the source that are not given here.

Columns and labels:
Mäusen = conditions: mouse, in vivo; cited from earlier work
Ratte = conditions: rat, cited from earlier work
[1] = system: Globodera rostochinesis und Globodera pallida; experiment: Nematicidal effect: lethal concentrations on second-stage juveniles, 24 h (Example 1); conditions: for LC50: read-out: CL50; for EC100: read-out: CL100
[2] = system: Globodera rostochienensis und Globodera pallida; experiment: Nematostatic effect: inhibition of hatching from cysts (Example 2); assay type: in vivo; conditions: for activity at 10 µM: im, 360 h, 0,01 mmol, read-out: Bildung von Einschlußkörpern im Verhältnis zur Bekämpfung
Description: Man realisierte ein Experiment, um den Effekt von trans-1,3-Diphenyl-2-propen-1-on bei der Bildung von Einschlußkörpern der Globodera spp. zu sehen. Man setzte 10 Zysten einer gemischten Population der Spezie Globodera rostochienensis und Globodera pallida in Violen mit 2cc einer Lösung, die 10 mmol ZnSO4 als Induktionsmittel der Bildung von Einschlußkörpern enthielt, und eine variable Konzentration von trans-1,3-Diphenyl-2-propen-1-on (0,05, 0,04, 0,03, 0,01 und 0,005 mmol). Die in den vier Replikatoren und in den Bekämpfungen entwickelten Jungen zählte man periodisch während 15 Tagen. Auf der Basis der Regressionskurve, die die Resultate des Experimentes besser beschreibt, schätzte man, was die Anwesenheit von nur 0,007 mmol von trans-1,3-Diphenyl-2-propen-1-on während 15 Tagen ausreichend war, um die Bildung von Einschlußkörpern auf die Hälfte derjenigen der Bekämpfung zu reduzieren.
Nachfolgend und mit dem Ziel zu sehen, ob die Hinderung der Bildung von Einschlußkörpern irreversibel sei, entfernt man die Zysten, wäscht man mit destilliertem Wasser und setzt sie in neue Violen mit 2cc einer Lösung, die lediglich das Induktionsmittel der Bildung von Einschlußkörpern (10 mmol ZnSO4) enthielt. Man fand heraus, das der Bildung von Einschlußkörpern hindernde Effekt des trans-1,3-Diphenyl-2-propen-1-on bei einer Dosis über 0,03 mmol unumkehrbar ist. Die bei der Dosis von 0,01 mmol auftretende Bildung von Einschlußkörpern war deutlich geringer als die der Bekämpfung (37,28%) in den ersten 15 Tagen und praktisch null ( es entwickelten sich lediglich 4,6% im Verhältnis zur Bekämpfung) nach der Herausnahme des trans-1,3-Diphenyl-2-propen-1-on bei 15 Tagen seit Beginn des Experimentes (Figur 3).

[3] = Acute toxicity in male Albino-Swiss mouse, intraperitoneal (Example 3); assay type: in vivo, Albino-Swiss Maus; conditions: mouse, in vivo, ip, male Albino-Swiss mouse, intraperitoneal, 24 h, estimated from regression curve; read-out: DL50
Description: (§1) Man studierte die Toxizität bei einer männlichen ,Albino-Swiss" Maus mittels der intraperitonealen (i.p.) Anwendung variabler Dosen von trans-1,3-Diphenyl-2-propen-1-on bei 10 […] zur Behandlung. Man wertete die Nummer der toten Tiere nach 24 Stunden der Anwendung und berechnete die Gleichung der Regressionskurve, die die Resultate des Experimentes besser beschreibt. Ausgehend von den Regressionsgleichungen schätzte man dieDL50 und DL0 (Dosen des trans-1,3-Diphenyl-2-propen-1-on ohne offensichtlichen Effekt) bei 24 Stunden. Ebenso schätzte man das Potential der Toxizität (pT) (Luckey und Venugopal, 1977. J. Toxicol. & Envirn. Health. 2:633.)
(§2) Das DL50 schätzte man bei 1494 mg/Kg bei 24 Stunden (Figur 4). Ausgehend von diesen Daten deduzierte man das das trans-1,3-Diphenyl-2-propen-1-on eine leicht toxische Substanz ist mit DL50 schwankend zwischen 0,5 und 5 g/kg (Loomis, 1982. Ed acribia. Zaragoza, 33-43). Der letale Effekt null für trans-1,3-Diphenyl-2-propen-1-on bei 24 Stunden war DL0=653,85 mg/kg.
(§3) Das toxische Potential schätzte man auf pT50=2,14.

Albino-Swiss Maus = experiment: as above; assay type: in vivo
Description: as §1, §2, §3

[4] = Brine shrimp assay (Example 4); conditions: in vivo, Artemia salina, read-out: CL50
Description: Die Analyse der Toxizität einer Substanz auf eine Salzgarnele Artemia salina (Brine shrimp) vermitteln eine angenäherte Vorstellung der biologischen Aktivität eines Produktes und insbesondere seiner Zytotoxizität.
Das Experiment wurde durchgeführt nach der Methode, die durch Mayer et al., 1982, beschrieben wurde ( Planta Med. 45:31-34), wobei das CL50 bei 24 Stunden für die Garnelen berechnet wird. Man benutzte vier Replikatoren, jeweils mit einer der Konzentrationen von trans-1,3-Diphenyl-2-propen-1-on (0,1, 0,01, 0,001 und 0,0001 mmol) und adäquate Bekämpfungen. Das geschätzte CL50 lag bei 0,0247 mmol, Dosen, die annäherungsweise mit denjenigen übereinstimmen, die für die Larven des zweiten Stadiums der Nematoden der Zyste berechnet wurden (CL50=0,033).

[5] = system: Musa spp. cv Cavendish ,,Gran enano"; experiment: Phytotoxicity: banana plants (5.2); assay type: in vivo
Description: Man studierte gleitherweise die Phytotoxizität von trans-1,3-Diphenyl-2-[…] auf Pflanzen der Bananenpflanzung (Musa spp. cv Cavendish ,Gran enano"). Bananenpflanzungen, die drei Monate alt waren und aus einer Kultivierung in vitro stammten, pflanzte man in Holzkübel von 5 l Kapazität mit einem Substrat von 1:1:1 (Torf:Sand:Kies) und ordnete diese zufällig in einem Gewächshaus an. Für dieses Experiment ordnete man 10 Replikatoren zur Behandlung und 5 zur Bekämpfung an. […]

[6] = system: Vinca major, Adiantum capillus-veneris, Begonia rex, Hedera helix; experiment: Phytotoxicity: development of laboratory plants (5.2); assay type: in vivo; conditions: 0,05 mmol with irrigation at field capacity, 50 days, 25°C, 80% relative humidity
Procedure: Die Phytotoxizität der trans-1,3-Diphenyl-2-propen-1-on studierte man im Laboratorium unter Benutzung von Vinca major Pflanzen (8 Pflanzen), Adiantum capillus-veneris (2 Pflanzen), Begonia rex (2 Pflanzen) und Hedera helix (2 Pflanzen), die man an Ort und Stelle zog und in einer Kammer bei 25°C, 80% relativer Luftfeuchtigkeit und 13 Stunden Licht pro Tag kultivierte. Die Hälfte der Pflanzen behandelte man mit einer Dosis von trans-1,3-Diphenyl-2-propen-1-on von 0,05 mmol, das man auf eine Bewässerung mit Feldkapazität anwendete.

[7] = system: Tomate (Lycopersicum esculentum var. marglobe); experiment: Phytotoxicity: germination and elongation of tomato seeds (5.1); conditions: tomato, 0,05 and 0,5 mmol, statement in words
[8] = system: Kresse (Nasturtium officinale); experiment: Phytotoxicity: germination and elongation of cress seeds (5.1); conditions: for activity at 50 µM / activity at 500 µM: Nasturtium officinale, 168 h
Meloidogyne javanica = experiment: Field effect in a banana plantation greenhouse infested with nematodes (1.2); assay type: in vivo; conditions: 0,05 mmol solution, 3000 l with irrigation water; soil samples three days later
Description: Man bereitete 3000 Liter einer Lösung von trans-1,3-Diphenyl-2-propen-1-on 0,05 mmol und verwendete diese am Boden mit dem Wasser der Bewässerung in einem Gewächshaus der Bananenanpflanzung, das von dem phytoparasitischen Nematoden Meloidogyne javanica befallen war. Drei Tage später nahm man Proben des Bodens der behandelten Parzelle und stellte fest, das in den Extraktionen von Nematoden mittels der Methode der Zentrifugation auf Zucker (Extraktion von sowohl lebenden und toten Nematoden) lediglich 25% lebende Larven der M. javanica zu finden waren, sodaß die Behandlung mit trans-1,3-Diphenyl-2-propen-1-on eine Näherungsweiseeffektivität von 75% hatte.

M. javanica = experiment: Infestation index of tomato roots (1.3); assay type: in vivo; conditions: index 0 to 5; tomato plants in soil treated as in experiment 1.2; untreated soil ima=4,33
Description: Man pflanzte Tomatenpflanzen in einer kommerziell erhältlichen Auswahl, anfällig für M. javanica, um die Pflanzen der Bananenpflanzung, die mit trans-1,3-Diphenyl-2-propen-1-on des Experimentes 1.2 behandelt wurde, wie auch um solche, die nicht behandelt wurden. Der Index des Befalles der Wurzeln der Tomate gab uns eine näherungsweise Vorstellung des Niveaus der Infektion mit Nematoden der Wurzelknoten im Feld (Bridge & Page, 1980. Tropical Pest Management, 26:296-298). Zur Klassifikation der angegriffe der Nematoden auf die Wurzeln der Tomate etablierte man einen Index des Befalles von 0 bis 5. Die Pflanzen, die in dem mit trans-1,3-Diphenyl-2-propen-1-on behandeltem Boden wuchsen, erhielten einen mittleren Befallindex (ima) der deutlich kleiner war (ima=3) als derjenige der Pflanzen, die im Boden ohne Behandlung (ima=4,33) wuchsen.

[9] = tomato, in vivo
[10] = read-out: TE: Rate der Verlängerung

CNC(=O)O/N=C/C(C)(C)SC [Aldicarb]
DL50 (Mäusen): 0,3 mg/Kg

CNC(=O)Oc1cccc2c1OC(C)(C)C2 [Carbofurano]
DL50 (Mäusen): 2 mg/kg

CN1CSC(=S)N(C)C1 [Dazomet]
DL50 (Mäusen): 180 mg/kg

CCOP(=O)(NC(C)C)Oc1ccc(SC)c(C)c1 (centres unmarked) [Fenamifos]
DL50 (Mäusen): 22,7 mg/Kg

CNC(=O)ON=C(SC)C(=O)N(C)C [Oxamilo]
DL50 (Mäusen): 2,3 mg/Kg

CC(=O)C#Cc1ccccc1 [Verbindung 1, 4-Phenyl-3-butin-2-on]
toxischer Effekt (Ratte; 56 mg/kg intravenous): keinen toxischen Effekt | LC50 [1]: 3.7 µM and 0.53 µg/mL | EC100 [1]: < 50 µM and < 7.21 µg/mL

C=CSc1ccccc1 [Verbindung 2, Phenylvinylsulfid]
LC50 [1]: 21 µM and 2.86 µg/mL

O=C/C=C/c1ccccc1 [Verbindung 3, trans-Zimtaldehyd]
LC50 [1]: 24 µM and 3.17 µg/mL | EC100 [1]: < 1000 µM and < 132 µg/mL

C=C[S+]([O-])c1ccccc1 (centres unmarked) [Verbindung 4, Phenylvinylsulfoxid]
LC50 [1]: 111 µM and 16.9 µg/mL | EC100 [1]: < 1000 µM and < 152 µg/mL

CC(=O)/C=C/c1ccccc1 [Verbindung 5, trans-4-Phenyl-3-buten-2-on]
LD50 (Ratte; intraperitoneal): 1210 mg/kg | LD50 (Ratte; intravenous): 112 mg/kg | LC50 [1]: 168 µM and 24.6 µg/mL | EC100 [1]: < 1000 µM and < 146 µg/mL

O=C1CCC(c2ccccc2)O1 (centres unmarked) [Verbindung 6, γ-Phenyl-γ-butirolacton]
LC50 [1]: 282 µM and 45.7 µg/mL | EC100 [1]: < 1000 µM and < 162 µg/mL

O=C(Cc1ccccc1)Cc1ccccc1 [Verbindung 7, 1,3-Diphenylaceton]
LC50 [1]: 961 µM and 202 µg/mL

O=C(/C=C/c1ccccc1)c1ccccc1 [Verbindung 8, trans-1,3-diphenyl-2-propen-1-on]
pIC50 ([2]; Globodera pallida, 360 h, 15 days exposure, 10 mmol ZnSO4 as hatching inducer, hatching reduced to half of control, read-out: Bildung von Einschlußkörpern hemmende Dosis 50 (DIE50)): 5.15 | activity at 10 µM ([2]; Globodera pallida, after removal of the compound at day 15): 4.6% | activity at 10 µM ([2]; Globodera pallida, first 15 days): 37.3% | Bildung von Einschlußkörpern ([2]; concentrations of 0,03 mmol and more, 15 days): hörte die Bildung von Einschlußkörpern völlig auf | Reversibility of the hatching-inhibiting effect ([2]; dose above 0,03 mmol, cysts washed and placed in 10 mmol ZnSO4 only): unumkehrbar | LD50 at 24 h [3]: 1490 mg/kg | toxisches Potential pT50 (Albino-Swiss Maus; estimated from the mouse i.p. data (Luckey and Venugopal)): 2,14 | DL0 (letaler Effekt null) (Albino-Swiss Maus; male Albino-Swiss mouse, intraperitoneal, 24 h): 653,85 mg/kg | DL50 (Albino-Swiss Maus; male Albino-Swiss mouse, intraperitoneal, 24 h, estimated from regression curve, 1440 min): 1492*** mg/Kg | LC50 at 24 h [4]: 24.7 µM | Effekt auf Pflanzen der Bananenpflanzung ([5]; 0,05 and 0,5 mmol with irrigation water, after 3 months, greenhouse pots): keinen Effekt | Effekt auf Pflanzen der Bananenpflanzung ([5]; after 6 months, treated banana plants in the greenhouse of Example 1.2): Ebensowenig stellt man einen Effekt | Wachstum und allgemeiner Aspekt der Pflanzen [6]: keine Unterschiede im Wachstum oder im allgemeinen Aspekt | Rate der Keimung [7]: variierte bei der Tomate nicht | Verlängerungsrate [7]: variierte bei der Tomate nicht signifikant | activity at 50 µM [8, 10]: 97.9% | activity at 500 µM [8, 10]: 18.4% | activity at 50 µM ([8]; read-out: TG: Rate der Keimung): 78.4% | activity at 500 µM ([8]; read-out: TG: Rate der Keimung): 86.5% | TE: Rate der Verlängerung ([8]; cress primary root, 0,5 mmol, 7 days, 25°C, percent of control): deutliche Verminderung der primären Wurzel | TG: Rate der Keimung ([8]; cress, 0,5 mmol, 7 days, 25°C, percent of control): leichte Verminderung der Keimung | Näherungsweiseeffektivität (Meloidogyne javanica): ~75% | lebende Larven der M. javanica (Meloidogyne javanica): 25% | LC50 [1]: 33 µM and 6.86 µg/mL | EC100 [1]: < 50 µM and < 10.4 µg/mL | mittlerer Befallindex (ima) (M. javanica): 3 | activity at 168 h, 50 µM ([9]; TE: Rate der Verlängerung): 105% | activity at 168 h, 500 µM ([9]; TE: Rate der Verlängerung): 89.2% | activity at 168 h, 50 µM ([9]; TG: Rate der Keimung): 103% | activity at 168 h, 500 µM ([9]; TG: Rate der Keimung): 100%
